Tested on: SETVI
Assay: Pre-emergence herbicidal action
Type: in vivo
Conditions: Table 2, pre-emergence (PE), 320 g/ha, scored after 3 weeks
Method in brief: (§1)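 Visual herbicidal activity in percent (100% = dead, 0% = as untreated control), scored 3 weeks after treatment. Seeds were sown in sandy loam and covered, then the soil surface was sprayed pre-emergence with wettable-powder or emulsion-concentrate formulations in 600 to 800 l/ha water containing 0.2% wetting agent.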

Going from `Nc1cc(-c2ccc3occc3c2)nc(C(=O)OCc2ccc(F)c(F)c2F)c1Cl` [Example I-13] to `Nc1cc(-c2ccc3sccc3c2)nc(C(=O)OCc2ccc(F)cc2F)c1Cl` [Example I-18], the “Herbicidal action against SETVI” value falls from 100% to 70%.

With `Nc1cc(-c2ccc3sccc3c2)nc(C(=O)OCc2ccc(C(F)(F)F)cc2)c1Cl` [Example I-16] the “Herbicidal action against SETVI” value was 80%.

Tested on: ECHCG
Assay: Pre-emergence herbicidal action
Type: in vivo
Conditions: Table 2, pre-emergence (PE), 320 g/ha, scored after 3 weeks
Method in brief: as §1

Compared with `Nc1cc(-c2ccc3occc3c2)nc(C(=O)OCc2ccc(F)c(F)c2F)c1Cl` [Example I-13], `Nc1cc(-c2ccc3sccc3c2)nc(C(=O)OCc2ccc(F)cc2F)c1Cl` [Example I-18] is higher in “Herbicidal action against ECHCG” value: 90% for the first, 100% for the second.

For `Nc1cc(-c2ccc3sccc3c2)nc(C(=O)OCc2ccc(C(F)(F)F)cc2)c1Cl` [Example I-16], the “Herbicidal action against ECHCG” value was 100%.

Tested on: POLCO
Assay: Pre-emergence herbicidal action
Type: in vivo
Conditions: Table 2, pre-emergence (PE), 320 g/ha, scored after 3 weeks
Method in brief: as §1

First: Nc1cc(-c2ccc3occc3c2)nc(C(=O)OCc2ccc(F)c(F)c2F)c1Cl [Example I-13]
Second: Nc1cc(-c2ccc3sccc3c2)nc(C(=O)OCc2ccc(F)cc2F)c1Cl [Example I-18]
The “Herbicidal action against POLCO” value of the first is higher: 100% for the first, 10% for the second.

`Nc1cc(-c2ccc3sccc3c2)nc(C(=O)OCc2ccc(C(F)(F)F)cc2)c1Cl` [Example I-16] was tested, and the “Herbicidal action against POLCO” value was 70%.

Tested on: VIOTR
Assay: Pre-emergence herbicidal action
Type: in vivo
Conditions: Table 2, pre-emergence (PE), 320 g/ha, scored after 3 weeks
Method in brief: as §1

Compared with `Nc1cc(-c2ccc3occc3c2)nc(C(=O)OCc2ccc(F)c(F)c2F)c1Cl` [Example I-13], `Nc1cc(-c2ccc3sccc3c2)nc(C(=O)OCc2ccc(F)cc2F)c1Cl` [Example I-18] is lower in “Herbicidal action against VIOTR” value: 30% for the first, 20% for the second.

With `Nc1cc(-c2ccc3sccc3c2)nc(C(=O)OCc2ccc(C(F)(F)F)cc2)c1Cl` [Example I-16] the “Herbicidal action against VIOTR” value was 30%.

Tested on: ABUTH
Assay: Pre-emergence herbicidal action
Type: in vivo
Conditions: Table 2, pre-emergence (PE), 320 g/ha, scored after 3 weeks
Method in brief: as §1

Compared with `Nc1cc(-c2ccc3occc3c2)nc(C(=O)OCc2ccc(F)c(F)c2F)c1Cl` [Example I-13], `Nc1cc(-c2ccc3sccc3c2)nc(C(=O)OCc2ccc(F)cc2F)c1Cl` [Example I-18] is higher in “Herbicidal action against ABUTH” value: 30% for the first, 40% for the second.

For `Nc1cc(-c2ccc3sccc3c2)nc(C(=O)OCc2ccc(C(F)(F)F)cc2)c1Cl` [Example I-16], the “Herbicidal action against ABUTH” value was 80%.

Tested on: AMARE
Assay: Pre-emergence herbicidal action
Type: in vivo
Conditions: Table 2, pre-emergence (PE), 320 g/ha, scored after 3 weeks
Method in brief: as §1

`Nc1cc(-c2ccc3occc3c2)nc(C(=O)OCc2ccc(F)c(F)c2F)c1Cl` [Example I-13] and `Nc1cc(-c2ccc3sccc3c2)nc(C(=O)OCc2ccc(F)cc2F)c1Cl` [Example I-18] are the same in “Herbicidal action against AMARE” value: 100% for the first, 100% for the second.

With `Nc1cc(-c2ccc3sccc3c2)nc(C(=O)OCc2ccc(C(F)(F)F)cc2)c1Cl` [Example I-16] the “Herbicidal action against AMARE” value was 80%.

Tested on: ALOMY
Assay: Pre-emergence herbicidal action
Type: in vivo
Conditions: Table 2, pre-emergence (PE), 320 g/ha, scored after 3 weeks
Method in brief: as §1

First: Nc1cc(-c2ccc3occc3c2)nc(C(=O)OCc2ccc(F)c(F)c2F)c1Cl [Example I-13]
Second: Nc1cc(-c2ccc3sccc3c2)nc(C(=O)OCc2ccc(F)cc2F)c1Cl [Example I-18]
The “Herbicidal action against ALOMY” value of the first is higher: 80% for the first, 30% for the second.

For `Nc1cc(-c2ccc3sccc3c2)nc(C(=O)OCc2ccc(C(F)(F)F)cc2)c1Cl` [Example I-16], the “Herbicidal action against ALOMY” value was 30%.

Tested on: SETVI
Assay: Post-emergence herbicidal action
Type: in vivo
Conditions: Table 5, post-emergence (PO), 320 g/ha, assessed after about 3 weeks
Method in brief: (§2)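 After sowing in sandy loam, plants grew 2 to 3 weeks in the greenhouse, then at the one-leaf stage received the formulated compound as a foliar aqueous spray (600 to 800 l/ha, 0.2% wetting agent). Effect is given as visual percent damage relative to untreated controls.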

`Nc1cc(-c2ccc3occc3c2)nc(C(=O)OCc2ccc(F)c(F)c2F)c1Cl` [Example I-13] and `Nc1cc(-c2ccc3sccc3c2)nc(C(=O)OCc2ccc(F)cc2F)c1Cl` [Example I-18] are the same in “Herbicidal action against SETVI” value: 90% for the first, 90% for the second.

`Nc1cc(-c2ccc3sccc3c2)nc(C(=O)OCc2ccc(C(F)(F)F)cc2)c1Cl` [Example I-16] was tested, and the “Herbicidal action against SETVI” value was 90%.

Tested on: ECHCG
Assay: Post-emergence herbicidal action
Type: in vivo
Conditions: Table 5, post-emergence (PO), 320 g/ha, assessed after about 3 weeks
Method in brief: as §2

Compared with `Nc1cc(-c2ccc3occc3c2)nc(C(=O)OCc2ccc(F)c(F)c2F)c1Cl` [Example I-13], `Nc1cc(-c2ccc3sccc3c2)nc(C(=O)OCc2ccc(F)cc2F)c1Cl` [Example I-18] is higher in “Herbicidal action against ECHCG” value: 90% for the first, 100% for the second.

With `Nc1cc(-c2ccc3sccc3c2)nc(C(=O)OCc2ccc(C(F)(F)F)cc2)c1Cl` [Example I-16] the “Herbicidal action against ECHCG” value was 90%.

Tested on: POLCO
Assay: Post-emergence herbicidal action
Type: in vivo
Conditions: Table 5, post-emergence (PO), 320 g/ha, assessed after about 3 weeks
Method in brief: as §2

First: Nc1cc(-c2ccc3occc3c2)nc(C(=O)OCc2ccc(F)c(F)c2F)c1Cl [Example I-13]
Second: Nc1cc(-c2ccc3sccc3c2)nc(C(=O)OCc2ccc(F)cc2F)c1Cl [Example I-18]
The “Herbicidal action against POLCO” value of the first is higher: 100% for the first, 80% for the second.

With `Nc1cc(-c2ccc3sccc3c2)nc(C(=O)OCc2ccc(C(F)(F)F)cc2)c1Cl` [Example I-16] the “Herbicidal action against POLCO” value was 90%.

Tested on: VIOTR
Assay: Post-emergence herbicidal action
Type: in vivo
Conditions: Table 5, post-emergence (PO), 320 g/ha, assessed after about 3 weeks
Method in brief: as §2

Going from `Nc1cc(-c2ccc3occc3c2)nc(C(=O)OCc2ccc(F)c(F)c2F)c1Cl` [Example I-13] to `Nc1cc(-c2ccc3sccc3c2)nc(C(=O)OCc2ccc(F)cc2F)c1Cl` [Example I-18], the “Herbicidal action against VIOTR” value falls from 100% to 90%.

`Nc1cc(-c2ccc3sccc3c2)nc(C(=O)OCc2ccc(C(F)(F)F)cc2)c1Cl` [Example I-16] was tested, and the “Herbicidal action against VIOTR” value was 90%.

Tested on: PHBPU
Assay: Post-emergence herbicidal action
Type: in vivo
Conditions: Table 5, post-emergence (PO), 320 g/ha, assessed after about 3 weeks
Method in brief: as §2

`Nc1cc(-c2ccc3occc3c2)nc(C(=O)OCc2ccc(F)c(F)c2F)c1Cl` [Example I-13] and `Nc1cc(-c2ccc3sccc3c2)nc(C(=O)OCc2ccc(F)cc2F)c1Cl` [Example I-18] are the same in “Herbicidal action against PHBPU” value: 80% for the first, 80% for the second.

For `Nc1cc(-c2ccc3sccc3c2)nc(C(=O)OCc2ccc(C(F)(F)F)cc2)c1Cl` [Example I-16], the “Herbicidal action against PHBPU” value was 80%.

Tested on: ABUTH
Assay: Post-emergence herbicidal action
Type: in vivo
Conditions: Table 5, post-emergence (PO), 320 g/ha, assessed after about 3 weeks
Method in brief: as §2

`Nc1cc(-c2ccc3occc3c2)nc(C(=O)OCc2ccc(F)c(F)c2F)c1Cl` [Example I-13] and `Nc1cc(-c2ccc3sccc3c2)nc(C(=O)OCc2ccc(F)cc2F)c1Cl` [Example I-18] are the same in “Herbicidal action against ABUTH” value: 100% for the first, 100% for the second.

`Nc1cc(-c2ccc3sccc3c2)nc(C(=O)OCc2ccc(C(F)(F)F)cc2)c1Cl` [Example I-16] was tested, and the “Herbicidal action against ABUTH” value was 100%.

Tested on: AMARE
Assay: Post-emergence herbicidal action
Type: in vivo
Conditions: Table 5, post-emergence (PO), 320 g/ha, assessed after about 3 weeks
Method in brief: as §2

`Nc1cc(-c2ccc3occc3c2)nc(C(=O)OCc2ccc(F)c(F)c2F)c1Cl` [Example I-13] and `Nc1cc(-c2ccc3sccc3c2)nc(C(=O)OCc2ccc(F)cc2F)c1Cl` [Example I-18] are the same in “Herbicidal action against AMARE” value: 100% for the first, 100% for the second.

For `Nc1cc(-c2ccc3sccc3c2)nc(C(=O)OCc2ccc(C(F)(F)F)cc2)c1Cl` [Example I-16], the “Herbicidal action against AMARE” value was 100%.

Tested on: STEME
Assay: Post-emergence herbicidal action
Type: in vivo
Conditions: Table 5, post-emergence (PO), 320 g/ha, assessed after about 3 weeks
Method in brief: as §2

Compared with `Nc1cc(-c2ccc3occc3c2)nc(C(=O)OCc2ccc(F)c(F)c2F)c1Cl` [Example I-13], `Nc1cc(-c2ccc3sccc3c2)nc(C(=O)OCc2ccc(F)cc2F)c1Cl` [Example I-18] is lower in “Herbicidal action against STEME” value: 100% for the first, 80% for the second.

With `Nc1cc(-c2ccc3sccc3c2)nc(C(=O)OCc2ccc(C(F)(F)F)cc2)c1Cl` [Example I-16] the “Herbicidal action against STEME” value was 80%.
